Values of other authors as cited in patent US9238023B2, “Methods for improving health in humans” (Quality IP Holdings, LLC, priority 2012, dated 2016).

Columns and labels:
hGH = settings: for effect on hGH: other amino acids, literature
GH = settings: subcutaneous injection of 0.06 IU, GH deficient subjects

## N=C(N)NCCC[C@H](N)C(=O)O [arginine]
hGH; 30 g, males
  elevation of serum hGH levels: 8.6 fold
hGH; intravenous infusion 183 mg/kg body weight, females
  increase of hGH levels: > 20 fold

## N[C@@H](Cc1c[nH]cn1)C(=O)O [histidine]
hGH
  effect on hGH: marked increases in hGH

## NCCCC[C@H](N)C(=O)O [lysine]
hGH
  effect on hGH: marked increases in hGH

## CSCC[C@H](N)C(=O)O [methionine]
hGH
  effect on hGH: marked increases in hGH

## NCCC[C@H](N)C(=O)O [ornithine]
hGH
  effect on hGH: marked increases in hGH

## N[C@@H](Cc1ccccc1)C(=O)O [phenylalanine]
hGH
  effect on hGH: marked increases in hGH

## HGH: human growth hormone, subcutaneous injection in the treatment of GH deficient subjects
GH
  mean levels of GH reached: 0.4 ng/mL
